# Biological target: T1, ChU-B laccase (blood-tolerant ChU-B mutant of PM1 laccase) (basidiomycete PM1, UniProt Q12571, F417I/F475E, form not given)
# T1 construct: directed-evolution variant; alpha-factor evolved prepro-leader processed, extra N-terminal ETEAEF kept (ETEAEFSIGP...); secreted by Pichia pastoris X-33; 53,939 Da calculated, 62,541 Da glycosylated
# Assay: steady-state kinetics, absorbance […] nm
# Assay type: biochemical
# Settings: pH 5.0; enzyme from P. pastoris; read-out: ChU-B fromP. pastoris / Km
# T1 sequence (Q12571 entry or part of it F417I/F475E, form open): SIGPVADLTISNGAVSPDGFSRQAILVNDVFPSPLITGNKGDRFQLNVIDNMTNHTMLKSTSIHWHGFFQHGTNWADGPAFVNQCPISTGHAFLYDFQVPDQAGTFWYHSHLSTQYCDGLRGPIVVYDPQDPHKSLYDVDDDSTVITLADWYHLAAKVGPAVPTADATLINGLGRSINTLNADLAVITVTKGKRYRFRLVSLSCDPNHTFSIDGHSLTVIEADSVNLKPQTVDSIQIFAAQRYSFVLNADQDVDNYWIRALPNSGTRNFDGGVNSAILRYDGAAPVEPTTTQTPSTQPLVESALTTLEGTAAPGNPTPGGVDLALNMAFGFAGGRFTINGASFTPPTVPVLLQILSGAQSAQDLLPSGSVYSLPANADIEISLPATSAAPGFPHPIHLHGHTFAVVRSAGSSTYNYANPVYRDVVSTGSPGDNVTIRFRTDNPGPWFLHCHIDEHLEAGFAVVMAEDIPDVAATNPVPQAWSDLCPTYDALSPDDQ
smiles,measurement,value
COc1cccc(OC)c1O [DMP],Km,1910 ± 50 µM

# From publication PMC3655043, “Functional expression of a blood tolerant laccase in Pichia pastoris” (BMC Biotechnology, 2013)
